Assay results from patent publication US12466820B2, “Amino quinazoline derivatives as P2X3 inhibitors” (CHIESI FARMACEUTICI S.p.A., priority 2019, dated 2025).

Columns and labels:
h P2X3 = molecular target: T1, h P2X3 (Homo sapiens, UniProt P56373); assay: In vitro electrophysiology assay for P2X3 (automated whole-cell patch clamp, Sophion Qube); assay type: cell-based; details: range of activity
T1 sequence (P56373 1-397): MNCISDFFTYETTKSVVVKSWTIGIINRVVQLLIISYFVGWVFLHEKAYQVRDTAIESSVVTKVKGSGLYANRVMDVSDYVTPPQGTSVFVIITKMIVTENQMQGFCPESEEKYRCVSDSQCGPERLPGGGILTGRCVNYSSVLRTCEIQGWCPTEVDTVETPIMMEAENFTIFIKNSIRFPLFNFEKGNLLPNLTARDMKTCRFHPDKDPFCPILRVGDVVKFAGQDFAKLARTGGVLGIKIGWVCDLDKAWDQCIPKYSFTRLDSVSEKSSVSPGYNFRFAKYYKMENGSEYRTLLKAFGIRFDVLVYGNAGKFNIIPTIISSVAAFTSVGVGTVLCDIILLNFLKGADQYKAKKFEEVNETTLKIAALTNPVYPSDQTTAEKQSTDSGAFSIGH
Summary of the method: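 Whole-cell automated patch clamp at room temperature, cells held at −60 mV; after two 800 nM α,β-MeATP baseline responses, antagonist preincubated 10 min then co-applied with 800 nM α,β-MeATP. Inhibition of peak current vs second agonist response; IC50 from 10-concentration curves, one concentration per cell.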

h P2X2/3 = molecular target: T2, h P2X2/3 (Homo sapiens, UniProt P56373+Q9UBL9); assay: In vitro electrophysiology assay for P2X2/3 (same protocol, 10 μM ATP as agonist); assay type: cell-based; details: Table 7, range of activity
T2 sequence (P56373 1-397): T1 sequence (P56373 1-397)
T2 sequence (Q9UBL9 1-471): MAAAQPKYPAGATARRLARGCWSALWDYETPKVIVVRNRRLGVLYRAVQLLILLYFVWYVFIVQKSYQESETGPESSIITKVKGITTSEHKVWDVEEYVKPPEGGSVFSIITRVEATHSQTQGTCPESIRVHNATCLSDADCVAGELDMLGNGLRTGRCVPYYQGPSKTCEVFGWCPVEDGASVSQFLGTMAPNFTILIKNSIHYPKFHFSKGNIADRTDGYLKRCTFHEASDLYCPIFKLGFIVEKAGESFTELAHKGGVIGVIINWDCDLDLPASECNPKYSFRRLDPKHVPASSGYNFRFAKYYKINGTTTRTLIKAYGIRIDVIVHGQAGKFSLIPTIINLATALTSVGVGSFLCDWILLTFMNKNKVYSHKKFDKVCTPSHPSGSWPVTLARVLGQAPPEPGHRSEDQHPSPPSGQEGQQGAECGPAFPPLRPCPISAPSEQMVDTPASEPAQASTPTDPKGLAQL
Procedure: Cells expressing P2X3 receptors were grown according to standard practice and maintained at 37° C. in a 5% humidified CO2 atmosphere. The cells were seeded into T175 flask 2 days prior to the day of the assay and dissociated from the flasks using TrypLE when grown to confluence of 80-90%. The dissociated cells were resuspended in serum free media at a cell density of 3×10^6 cells/ml and loaded onto the Sophion Qube automated patch-clamp system. The extracellular assay buffer contained 145 mM NaCl, 4 mM KCl, 2 mM CaCl2), 1 mM MgCl2, 10 mM HEPES, and 10 mM glucose at pH 7.4. The intracellular assay solution contained 140 mM CsF, 10 mM NaCl, 10 mM EGTA, 10 mM HEPES at pH 7.2. Agonist stock solutions were prepared in H2O and diluted in bath solution prior to use. All antagonists were prepared as 10 mM stock solutions in DMSO and diluted in bath solution prior to use. All experiments were performed under the whole-cell patch clamp configuration at room temperature with 384 individual cells being voltage clamped at −60 mV simultaneously on the Sophion Qube instrument. Two baseline responses were established with the application of α,β-MeATP (800 nM), with the subsequent agonist applications being washed out using extracellular assay buffer containing 0.5 U/ml apyrase. Following the second agonist application, antagonist was incubated in the absence of α,β-MeATP for 10 minutes. After antagonist preincubation, 800 nM α,β-MeATP and antagonist were co-administered to determine the inhibitory effect of the antagonist. One concentration of an antagonist was assessed against a single cell, with different concentrations of the antagonist applied to other cells on the 384 recording substrate. The control P2X3 current amplitude was taken from the peak current amplitude from the second agonist response prior to preincubation with antagonist. The peak P2X3 current amplitude in the presence of antagonist was used to calculate the inhibitory effect at each concentration of the antagonist according to the following equation: […]
Concentration-response curves were constructed from ten different concentrations with each concentration of antagonist tested on at least two individual cells. The concentration of the antagonist to inhibit P2X3 current by 50% (IC50) was determined by fitting the data with the following equation: […]
Where ‘a’ is minimum response, ‘b’ is maximum response, ‘c’ is IC50 and ‘d’ is Hill slope.
Representative compound of the present invention have been also tested for P2X2/3 receptor.
The same assay protocol was used for the P2X2/3 assay as the P2X3 assay with two modifications: 1) 10 μM ATP was used as the agonist; and 2) the mean current amplitude was measured seven seconds after the application of agonist.

[1] = Table 6, inhibition of P2X3 current, agonist α,β-MeATP (800 nM)

SMILES | IC50 (h P2X3; [1]) | IC50 (h P2X3; Table 7) | IC50 (h P2X2/3) | h P2X2/3 (h P2X2/3)
Cc1cnc(-c2cc(OC3CCOCC3)c3ncnc(NC(C)c4ccc(C)nn4)c3c2)nc1 (single isomer, unassigned) [Example 28, N-[1-(6-methylpyridazin-3-yl)ethyl]-6-(5-methylpyrimidin-2-yl)-8-tetrahydropyran-4-yloxy-quinazolin-4-amine] | < 0.316 µM | < 0.316 µM | 0.316 to 3.16 µM | 
COc1cc(-c2ncc(C)cn2)cc2c(NC(C)c3ccc(C(F)(F)F)nn3)ncnc12 (single isomer, unassigned) [Example 121, 8-methoxy-6-(5-methylpyrimidin-2-yl)-N-[1-[6-(trifluoromethyl)pyridazin-3-yl]ethyl]quinazolin-4-amine] | 0.316 to 3.16 µM | < 0.316 µM | 0.316 to 3.16 µM | 
COc1cc(-c2ncc(C)cn2)cc2c(NC(C)c3nc(C)no3)ncnc12 (single isomer, unassigned) [Example 123, 8-Methoxy-N-[1-(3-methyl-1,2,4-oxadiazol-5-yl)ethyl]-6-(5-methylpyrimidin-2-yl)quinazolin-4-amine] | < 0.316 µM | < 0.316 µM | 3.16 to 31.6 µM | 
COc1cc(-c2ccc(C)cn2)cc2c(NC(C)c3nnc(C)s3)ncnc12 (single isomer, unassigned) [Example 127, 8-methoxy-6-(5-methyl-2-pyridyl)-N-[1-(5-methyl-1,3,4-thiadiazol-2-yl)ethyl]quinazolin-4-amine] | < 0.316 µM | < 0.316 µM | 3.16 to 31.6 µM | 
COc1cc(-c2ncc(C)cn2)cc2c(NC(C)c3nnc(C)o3)ncnc12 (single isomer, unassigned) [Example 129] | < 0.316 µM | < 0.316 µM | 3.16 to 31.6 µM | 
COc1cc(-c2ccc(C)cn2)cc2c(NC(C)c3nc(C)no3)ncnc12 (single isomer, unassigned) [Example 163, 8-Methoxy-N-[1-(3-methyl-1,2,4-oxadiazol-5-yl)ethyl]-6-(5-methyl-2-pyridyl)quinazolin-4-amine] | < 0.316 µM | < 0.316 µM | 3.16 to 31.6 µM | 
COc1cc(-c2ncc(C)cn2)cc2c(NC(CO)c3nc(C)no3)ncnc12 (single isomer, unassigned) [Example 166] | < 0.316 µM | < 0.316 µM | 3.16 to 31.6 µM | 
COc1cc(-c2ccc(F)cn2)cc2c(NC(C)c3ccc(C(F)(F)F)nn3)ncnc12 (single isomer, unassigned) [Example 169, 6-(5-fluoro-2-pyridyl)-8-methoxy-N-[1-[6-(trifluoromethyl)pyridazin-3-yl]ethyl]quinazolin-4-amine] | < 0.316 µM | < 0.316 µM | 3.16 to 31.6 µM | 
COc1cc(-c2ccc(F)cn2)cc2c(NC(C)c3nnc(C)s3)ncnc12 (single isomer, unassigned) [Example 173, 6-(5-fluoropyridin-2-yl)-8-methoxy-N-(1-(5-methyl-1,3,4-thiadiazol-2-yl)ethyl)quinazolin-4-amine] | 0.316 to 3.16 µM | 0.316 to 3.16 µM | 3.16 to 31.6 µM | 
COc1cc(-c2ccc(F)cn2)cc2c(NC(C)c3nnc(C)s3)ncnc12 (single isomer, unassigned) [Example 174, 6-(5-fluoropyridin-2-yl)-8-methoxy-N-(1-(5-methyl-1,3,4-thiadiazol-2-yl)ethyl)quinazolin-4-amine] | < 0.316 µM | < 0.316 µM |  | + (+: 5.5<pIC50 h P2X3 or h P2X2/3>4.5)
COc1cc(-c2ccc(F)cn2)cc2c(NC(C)c3nc(C)no3)ncnc12 (single isomer, unassigned) [Example 176, 6-(5-fluoropyridin-2-yl)-8-methoxy-N-(1-(3-methyl-1,2,4-oxadiazol-5-yl)ethyl)quinazolin-4-amine] | < 0.316 µM | < 0.316 µM | 3.16 to 31.6 µM | 
COc1cc(-c2ccc(F)cc2)cc2c(NC(C)c3cccc(=O)[nH]3)ncnc12 (single isomer, unassigned) [Example 190, 6-(1-((6-(4-Fluorophenyl)-8-methoxyquinazolin-4-yl)amino)ethyl)pyridin-2(1H)-one] | 0.316 to 3.16 µM | 0.316 to 3.16 µM | 3.16 to 31.6 µM | 
COc1cc(-c2ccc(F)cc2)cc2c(NC(C)c3cccc(=O)[nH]3)ncnc12 (single isomer, unassigned) [Example 191, 6-(1-((6-(4-Fluorophenyl)-8-methoxyquinazolin-4-yl)amino)ethyl)pyridin-2(1H)-one] | < 0.316 µM | < 0.316 µM | 0.316 to 3.16 µM | 
COc1cc(-c2ccc(F)cc2)cc2c(NC(C)c3nc(-c4ccncc4)no3)ncnc12 (single isomer, unassigned) [Example 193, 6-(4-fluorophenyl)-8-methoxy-N-(1-(3-(pyridin-4-yl)-1,2,4-oxadiazol-5-yl)ethyl)quinazolin-4-amine] | < 0.316 µM | < 0.316 µM | 0.316 to 3.16 µM | 
COc1cc(-c2ccc(F)cn2)cc2c(NC(C)c3nc(C)no3)ncnc12 (stereo not shown) [Example 2, 6-(5-fluoropyridin-2-yl)-8-methoxy-N-(1-(3-methyl-1,2,4-oxadiazol-5-yl)ethyl)quinazolin-4-amine] | < 0.316 µM | < 0.316 µM | 3.16 to 31.6 µM | 
COc1cc(-c2ncc(C)s2)cc2c(N[C@H](C)c3ccc(C)nn3)ncnc12 [Example 5, (R)-8-methoxy-N-(1-(6-methylpyridazin-3-yl)ethyl)-6-(5-methylthiazol-2-yl)quinazolin-4-amine] | < 0.316 µM | < 0.316 µM | 0.316 to 3.16 µM | 
COc1cc(-c2ncc(C)cn2)cc2c(N[C@H](C)c3noc(C)n3)ncnc12 [Example 7, 8-Methoxy-N-[(1R)-1-(5-methyl-1,2,4-oxadiazol-3-yl)ethyl]-6-(5-methylpyrimidin-2-yl)quinazolin-4-amine] | 0.316 to 3.16 µM | 0.316 to 3.16 µM | 3.16 to 31.6 µM | 
CNS(=O)(=O)c1cc(-c2ccc(F)cc2)cc2c(N[C@H](C)c3noc(C)n3)ncnc12 [Example 20, (R)-6-(4-fluorophenyl)-N-methyl-4-((1-(5-methyl-1,2,4-oxadiazol-3-yl)ethyl)amino)quinazoline-8-sulfonamide] |  |  | 0.316 to 3.16 µM | 
C[C@@H](Nc1ncnc2c(-c3ccnnc3)cc(-c3ccc(F)cc3)cc12)c1cnc(C(F)(F)F)nc1 [Example 24, (R)-6-(4-fluorophenyl)-8-(pyridazin-4-yl)-N-(1-(2-(trifluoromethyl)pyrimidin-5-yl)ethyl)quinazolin-4-amine] | < 0.316 µM | < 0.316 µM | 3.16 to 31.6 µM | 
Cc1ccc(CNc2ncnc3c(OC4CCOCC4)cc(-c4ccc(F)cn4)cc23)nn1 [Example 30, 6-(5-fluoro-2-pyridyl)-N-[(6-methylpyridazin-3-yl)methyl]-8-tetrahydropyran-4-yloxy-quinazolin-4-amine] | 0.316 to 3.16 µM | 0.316 to 3.16 µM | 3.16 to 31.6 µM | 
